Test results from patent publication US6809091B1, “Substances capable of inducing apoptosis” (Takara Bio Inc., priority 1998, dated 2004).
Read-outs that look alike come from different tables or passages of the source.

How the values were obtained:
DSEK cells = assay: cell growth of DSEK cells (rheumatism model in vitro), Premix WST-1; type: cell-based, human; conditions: for IC50: Homo sapiens; for inhibition of growth of rheumatism cells / antirheumatic activity: compared with the case where PBS was added
Method: (2) DSEK cells (owned by Department of Second Internal Medicine, Total Medical Center, Saitama Medical College, as a rhematism model in vitro) which were fibroblast cell strains established from synovial membrane from a patient suffering from human chronic rheumatism were incubated in an Iscov-MEM medium (IMDM; manufactured by Gibco BRL) containing 10% of FBS (manufactured by BioWhittaker) at 37° C. in the presence of 5% CO2 until the cells saturated in a incubator, a trypsin-EDTA solution (manufactured by BioWhittaker) was suspended in the above medium to an extent of 3×10^4 cells/ml and each 200 μl of the suspension was placed in each well of a 96-well microtiter plate (manufactured by Falcon). When the cells were almost in a state of 80% saturation after 5-7 days from incubation, the medium was exchanged and 200 μl of the above medium containing 50, 75, 100 or 150 μM of 4-hydroxy-2-cyclopenten-1-one or 4,5-dihydroxy-2-pentenal were added thereto.
A time course of 96 hours was adopted and, every 24 hours, 10 μl of Premix WST-1 (MK 400; manufactured by Takara Shuzo) were added followed by reacting at 37° C. for 3.5 hours and the value (A450-650) obtained by subtracting the absorbance at 650 nm (A650) from that at 450 nm (A450) was defined as a degree of cell growth.
(3) DSEK cells were prepared under the conditions as mentioned in Example 15-(2) and 20 μl of medium containing 25, 50, 75, 100, 200 or 400 μM of 4,5-dihydroxy-2-pentenal, 4-hydroxy-2-cyclopenten-1-one, 4-(9-guaninyl)-2-cyclopenten1-one or 2-(3,4-dihydroxy-1-butenyl)-4-(2-formylvinyl)-1,3-dioxolane were added thereto.
A time course of 72 hours was adopted and, every 24 hours, degree of cell growth was measured with a lapse of time. IC50 of each of the compounds was measured as well.

HL-60 cells [1] = assay: observation of apoptosis under an optical microscope; type: cell-based, human; conditions: HL-60, 24 hours
Method: (1) HL-60 cells (ATCC CCL-240) incubated at 37° C. in an RPMI 1640 medium (manufactured by BioWhittaker) containing 10% of fetal bovine serum (manufactured by JRH) treated at 56° C. for 30 minutes were suspended in an RPMI 1640 medium to make the concentration 2.5×10^5 cells/5 ml.
To 5 ml of this suspension were added 10 μl of 12.5 mM, 25 mM, 50 mM or 100 mM of a 70% ethanolic solution of 4,5-dihydroxy-2-pentenal prepared in Example 6-(1), 0.05 mM, 0.5 mM, 5 mM or 50 mM of a 70% ethanolic solution of 4-hydroxy-2-cyclopenten-1-[…] prepared in Example 6-(1), 5 mM, 10 mM or 20 mM of a 70% ethanolic solution of 4-(9-adeninyl)-2-cyclopenten-1-one prepared in Example 4-(4), 2.5 mM, 5 mM, 15 mM or 25 mM of a 70% ethanolic solution of 4-(9-guaninyl)-2-cyclopenten-1-one prepared in Example 4-(5), 75 mM, 150 mM or 300 mM of a 70% ethanolic solution of 1,5-epoxy-1-hydroxy-3-penten-2-one prepared in Example 5-(2) or 5 mM, 25 mM or 50 mM of a 70% ethanolic solution of 2-(trans-3,4-dihydroxy-1-butenyl)-4-(trans-2-formylvinyl)-1,3-dioxolane prepared in Example 6-(2) followed by incubating at 37° C. in the presence of 5% carbon dioxide gas for 24 hours.
Incidentally, such phenomena were not noted in the incubated cells to which […] of 70% ethanolic solution were added used as a control.

[2] = tested on: human promyelocytic leukemia HL-60; assay: MTT method: cell growth suppressing / apoptosis-inducing activity; type: cell-based; conditions: for apoptosis-inducing activity / cancer cell growth suppressing activity: HL-60, MTT method of Example 1, 48 hours; for cancer cell growth suppressing activity and apoptic body formation: HL-60, MTT method of Example 4-(2), sample in 50% ethanol, 16 hours
Method: Heated and non-heated substances of each of them were sterilized by a membrane filter of 0.22 μm to prepare samples for the apoptosis-inducing activity. Those samples were diluted with aseptic distilled water to an extent of 2-, 4-, 8-, 16- and 32-fold, their activity for suppressing the cell growth to the human promyelocytic leukemia HL-60 was measured as follows and their intensity or the apoptosis-inducing activity was compared.
Thus, 10 μl of each of the diluted solutions or 10 μl of aseptic distilled water were placed in a well of a 96-well microtiter plate. Then 90 μl of an RPMI 1640 medium (manufactured by Nissui) containing 10% of fetal bovine serum (manufactured by Gibco) which contained 5000 HL-60 cells (ATCC CCL240) were added thereto and an incubation was carried out at 37° C. for 48 hours in the presence of 5% carbon dioxide gas. After observing the shape of the cells under an optical microscope, 10 μl of a phosphate-buffered aqueous saline solution containing 5 mg/ml of 3-(4,5-dimethylthiazol-2-yl)-2,5-diphenyltetrazolium bromide (MTT; manufactured by Sigma), an incubation was continued for four hours more and state of growth of cells and formation of formazan produced in the cells were observed under a microscope. Further, 100 μl of 2-propanol containing 0.04N HCl were added thereto followed by well stirring and the absorbance at 590 nm was measured and used as a degree of growth of cells (an MTT method).
The solvent of the fraction was appropriately evaporated to substitute with a 50% aqueous solution of ethanol and the activity for suppressing the growth of cancer cells was measured by an MTT method mentioned in Example 1 except that the sample was diluted to a two-fold series using a 50% aqueous solution of ethanol and 2 μl of each of the diluted solutions or 2 μl of a 50% aqueous solution of ethanol were placed in a well of a flat-bottom 96-well microplate. Time for incubation was 16 hours.

HL-60 cells [3] = assay: Trypan Blue staining, survival rate; type: cell-based; conditions: Homo sapiens, HL-60, 24 hours, concentration where survival rate becomes 50%, read-out: Survival Rate50
Method: (3) The cells which were incubated for 24 hours by the same manner as in Example 9-(2) were stained with 0.4% Trypan Blue and observed under an optical microscope, numbers of viable cells which were not stained and of dead cells which were stained in blue were measured, concentration (survival rate50) of each of the samples where survival rate becomes 50% was determined and the result is given in Table 1.

[4] = 24 hours, Example 15-(3), read-out: IC50
[5] = 48 hours, Example 15-(2), read-out: IC50, 50% cell growth inhibiting concentration
[6] = 72 hours, Example 15-(3), read-out: IC50
[7] = 96 hours, Example 15-(2), read-out: IC50, 50% cell growth inhibiting concentration

Row | Structure (SMILES) | Degree of Cell Growth (DSEK cells; 50 μM, 24 hours) [A450-650] | Degree of Cell Growth (DSEK cells; 50 μM, 48 hours) [A450-650] | Degree of Cell Growth (DSEK cells; 50 μM, 72 hours) [A450-650] | Degree of Cell Growth (DSEK cells; 50 μM, 96 hours) [A450-650] | Degree of Cell Growth (DSEK cells; 75 μM, 24 hours) [A450-650] | Degree of Cell Growth (DSEK cells; 75 μM, 48 hours) [A450-650] | Degree of Cell Growth (DSEK cells; 75 μM, 72 hours) [A450-650] | Degree of Cell Growth (DSEK cells; 75 μM, 96 hours) [A450-650] | Degree of Cell Growth (DSEK cells; 100 μM, 24 hours) [A450-650] | Degree of Cell Growth (DSEK cells; 100 μM, 48 hours) [A450-650] | Degree of Cell Growth (DSEK cells; 100 μM, 72 hours) [A450-650] | Degree of Cell Growth (DSEK cells; 100 μM, 96 hours) [A450-650] | Degree of Cell Growth (DSEK cells; 150 μM, 24 hours) [A450-650] | Degree of Cell Growth (DSEK cells; 150 μM, 48 hours) [A450-650] | IC50 (DSEK cells; [4]) [µM] | IC50 (DSEK cells; [6]) [µM] | inhibition of growth of rheumatism cells / antirheumatic activity (DSEK cells) | final concentration at which aggregation of nuclei, reduction in size of the cells and formation of apoptic body were confirmed (HL-60 cells [1]) [µM] | cancer cell growth suppressing activity and apoptic body formation [2] | IC50 (HL-60 cells [3]) [µM] | other results
1 | O=CC=CC(O)CO (single isomer, unassigned) [4,5-dihydroxy-2-pentenal, trans-4,5-dihydroxy-2-pentenal] | 1.12 | 0.83 | 0.96 | 0.98 | 1.11 | 0.77 | 0.67 | 0.59 | 1.02 | 0.63 | 0.54 | 0.59 | 0.96 | 0.61 | 232 | 119 | significant inhibition | ≥ 1 | strong activity | 124 | Degree of Cell Growth (DSEK cells; 150 μM, 72 hours): 0.41 A450-650; Degree of Cell Growth (DSEK cells; 150 μM, 96 hours): 0.55 A450-650; IC50 (DSEK cells; [5]): 165 µM; IC50 (DSEK cells; [7]): 75 µM; apoptosis-inducing activity / cancer cell growth suppressing activity [2]: strong; apoptosis-inducing activity / cancer cell growth suppressing activity ([2]; listed as fraction 4): strong activity
2 | O=C/C=C/C1COC(/C=C/C(O)CO)O1 (stereo not drawn) [2-(trans-3,4-dihydroxy-1-butenyl)-4-(trans-2-formylvinyl)-1,3-dioxolane] |  |  |  |  |  |  |  |  |  |  |  |  |  |  | 267 | 68 | significant inhibition | ≥ 80 | noted | 74.4 | 
3 | Nc1nc2c(ncn2C2C=CC(=O)C2)c(=O)[nH]1 (stereo not shown) [4-(9-guaninyl)-2-cyclopenten-1-one] |  |  |  |  |  |  |  |  |  |  |  |  |  |  | 132 | 67 | significant inhibition | ≥ 39 |  | 67.9 | concentration of dried product showing deformation and apoptic body formation in the cells ([2]; HL-60, MTT assay): about 13 μg/ml
4 | O=C1C=CC(O)C1 (stereo not shown) [4-hydroxy-2-cyclopenten-1-one] | 0.57 | 0.71 | 0.73 | 0.54 | 0.51 | 0.68 | 0.68 | 0.55 | 0.50 | 0.64 | 0.67 | 0.51 | 0.46 | 0.55 | 207 | 60 | significant inhibition |  | strong activity | 25.5 | Degree of Cell Growth (DSEK cells; 150 μM, 72 hours): 0.63 A450-650; Degree of Cell Growth (DSEK cells; 150 μM, 96 hours): 0.50 A450-650; IC50 (DSEK cells; [5]): 60 µM; IC50 (DSEK cells; [7]): 35 µM
